Tests used:
BCL-2 [1] = assay: Automated Western blot (WES) analysis of BCL-2 protein in patient PBMCs; type: in vivo, human
Description: (§1) PBMCs from the trial patients or healthy donors were isolated from whole blood using Lymphoprep™ ([…] Technologies, Cat. #07801) following the manufacturer’s protocol. Whole blood was diluted 1:1 with room temperature phosphate-buffered saline (PBS) containing 2% fetal bovine serum (FBS) and carefully layered over an equal volume of Lymphoprep™ in a 50 mL conical tube. Samples were centrifuged at 800 × g for 20–30 min at room temperature with the brake off. The PBMC layer formed at the interface between the plasma and Lymphoprep™ was gently collected and transferred to a new tube. Cells were washed once with PBS containing 2% FBS by centrifugation at 300 × g for 10 min, and the final pellet was resuspended in DMEM media for downstream culture.
The BCL-2 protein levels in patient PBMCs were analyzed using PBMC lysate in the automated quantitative WES™ system (https://www.bio-techne.com/brands/proteinsimple), as we previously described. Briefly, the Simple Western WES™ immunoassays take place in capillaries and separate proteins by size as they migrate through stacking and separation matrix. The separated proteins are immobilized to the capillary wall via a proprietary, photoactivated capture chemistry. […] Quantitative results such as M.W, signal intensity (area), % area, and signal-to-noise for each immunodetected protein are presented in the results table automatically. […]

BCL-2 [2] = assay: Western blotting of BCL-2α/β proteins and cleaved caspase-3 in healthy donor PBMCs treated ex vivo with ABT-199; type: cell-based, human; conditions: 1 µM
Description: as §1
ABT-199 (S8048, Selleck Chemicals) was dissolved in DMSO. Healthy donor PBMCs were seeded at a density of 2 × 10⁶ cells per 60 mm dish and treated with 1 μM of ABT-199 for various time intervals (i.e., 2, 4, 8, and 24 h). At the end of each time point, PBMCs were harvested for protein and RNA extraction (below). All treatments were performed in 3–6 biological replicates and control samples were treated with vehicle (DMSO) only.
PBMC samples from above were harvested using 0.1% trypsin–EDTA solution (Gibco) and centrifuged (1,000 rcf, 4 min, 4 °C), washed with DPBS (Gibco), centrifuged again (1,000 rcf, 4 min, 4 °C), and the pellet was lysed in denaturing buffer containing Halt protease inhibitor cocktail (Thermo Fisher Scientific; Cat# SD-001/SN-002) for 15 min on ice. After centrifugation (15,000 rcf, 15 min, 4 °C), an aliquot of the supernatant was taken to determine the protein concentration using a BCA Protein Assay Kit (Thermo Fisher Scientific). Protein samples were mixed in NuPAGE LDS buffer and 1 × reducing agent (Invitrogen) and denatured at 95 °C for 5 min. Proteins separated by sodium dodecyl sulfate–polyacrylamide gel electrophoresis (SDS-PAGE) were transferred to a nitrocellulose membrane at 110 V for 110 min in a wet tank transfer system (Surelock system, Invitrogen). […]

AR−/lo LAPC9-CRPC = system: AR−/lo LAPC9-CRPC; design: method as in PMID 30190514; conditions: single agent; cited from earlier work
[3] = cited from earlier work
[4] = design: method as in PMID 34416076; conditions: cited from earlier work

SMILES: CC1(C)CCC(CN2CCN(c3ccc(C(=O)NS(=O)(=O)c4ccc(NCC5CCOCC5)c([N+](=O)[O-])c4)c(Oc4cnc5[nH]ccc5c4)c3)CC2)=C(c2ccc(Cl)cc2)C1 [venetoclax]
- BCL-2β and BCL-2α protein in patients' PBMCs (BCL-2 [1]; three 'responsive' patients (02–01, 02–07, 01–03), early cycles of treatment): promoted the generation of BCL-2β with concordant reduction in BCL-2α protein
- BCL-2α and BCL-2β protein in patients' PBMCs (BCL-2 [1]; three 'responsive' patients, late cycles and towards the end of treatment (EoT)): markedly reduced
- Apoptosis: active (cleaved) caspase-3 (BCL-2 [2]; PBMCs from all 3 healthy donors): increased active (cleaved) caspase-3
- BCL-2β protein levels and BCL-2β/BCL-2α ratios (BCL-2 [2]; all 3 healthy donor PBMCs, from 2 h up to 8 h): upregulated BCL-2β protein levels and increased the BCL-2β/BCL-2α ratios
- BCL-2α/BCL-2β proteins (BCL-2 [2]; healthy donor PBMCs, ≥ 24 h post treatment): lost and undetectable
- Growth of AR−/lo LAPC9-CRPC (AR−/lo LAPC9-CRPC): greatly inhibited
- Absolute bioavailability [3]: ~ 5%
- Less than expected exposure when doubling dose ([3]; from 400 to 800 mg, population PK report): 12%
- Cmax ([3]; previous values, 800 mg dose): 3740 ng/mL
- Cmin ([3]; previous values, 800 mg dose): 1430 ng/mL
- Venetoclax half-life ([3]; previously reported in AML patients): 14 to 26 h
- Venetoclax clearance ([3]; previously reported): 413 L/day
- Permeability [4]: low
- Solubility [4]: low
